Reference: PubChem BioAssay (NCI)
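Grown in 96-well plates, cells were treated for 48 hours with each compound at five concentrations. Insufficient inhibition: endpoint recorded as highest concentration tested. The concentration for 50% growth inhibition is given as GI50. Definition used: TGI = concentration required for complete inhibition of growth.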

Columns and labels:
Test in all cases: inhibition of tumour cell growth, NCI panel, 48 h
HCC-2998 colon = test system: HCC-2998 colon
SNB-19 CNS = test system: SNB-19 CNS
UACC-62 melanoma = test system: UACC-62 melanoma
ACHN renal = test system: ACHN renal
COLO 205 colon = test system: COLO 205 colon
A498 renal = test system: A498 renal
UO-31 renal = test system: UO-31 renal
MALME-3M melanoma = test system: MALME-3M melanoma
HCT-116 colon = test system: HCT-116 colon
MDA-MB-435 = test system: MDA-MB-435

Row | SMILES | TGI (HCC-2998 colon) [µM] | TGI (SNB-19 CNS) [µM] | TGI (UACC-62 melanoma) [µM] | TGI (ACHN renal) [µM] | TGI (COLO 205 colon) [µM] | TGI (A498 renal) [µM] | TGI (UO-31 renal) [µM] | TGI (MALME-3M melanoma) [µM] | TGI (HCT-116 colon) [µM] | TGI (MDA-MB-435) [µM] | GI50 (HCC-2998 colon) [µM] | GI50 (SNB-19 CNS) [µM] | GI50 (UACC-62 melanoma) [µM] | GI50 (MDA-MB-435) [µM] | GI50 (ACHN renal) [µM] | GI50 (COLO 205 colon) [µM] | GI50 (A498 renal) [µM] | GI50 (UO-31 renal) [µM] | GI50 (HCT-116 colon) [µM] | GI50 (MALME-3M melanoma) [µM]
1 | CCc1c(OC(C)=O)c2c(NC3OCC(OC(C)=O)C(OC(C)=O)C3OC(C)=O)nc(SC)nc2oc1=O (stereo not drawn) | > 100 | > 100 | > 100 | > 100 | > 100 | > 100 | > 100 | > 100 | > 100 | – | – | – | – | – | – | – | – | – | – | –
2 | C/C(CCn1[nH]c(=O)ccc1=O)=N\NC(=O)C(=O)NN | > 100 | > 100 | > 100 | > 100 | > 100 | > 100 | > 100 | > 100 | – | – | – | – | – | – | – | – | – | – | – | –
3 | Cc1ccc(/C=C/C(=O)c2cccc3ccccc23)cc1 | 37.7 | 29.6 | 33.7 | 30.7 | 56.4 | 27.4 | 39.7 | 28.6 | 24.6 | – | – | – | – | – | – | – | – | – | – | –
4 | O=C1C=CC(=O)c2nc3c(cc21)CCC3 | > 100 | > 100 | 33 | 33.1 | 27.7 | – | > 100 | 31.4 | 28.8 | – | – | – | – | – | – | – | – | – | – | –
5 | O=[N+]([O-])c1ccc(Cl)cc1N/N=C/c1ccnc2ccccc12 | > 100 | > 100 | > 100 | > 100 | > 100 | – | > 100 | – | > 100 | > 100 | – | – | – | – | – | – | – | – | – | –
6 | CC(=O)OCCOCNC(=S)N/N=C(\C)c1cnccn1 | > 100 | > 100 | 36.5 | 86.3 | > 100 | > 100 | > 100 | > 100 | > 100 | – | – | – | – | – | – | – | – | – | – | –
7 | COC(=O)CC(c1ccccc1)C1(c2ccccc2)SCCS1 (stereo not drawn) | > 290 | > 290 | > 290 | > 290 | > 290 | – | – | > 290 | > 290 | – | – | – | – | – | – | – | – | – | – | –
8 | Cc1ccc(-n2c3nc(=O)[nH]c(=O)c-3cc3cc([N+](=O)[O-])ccc32)cc1 | 28.6 | 74 | 29.8 | > 100 | 41.6 | 45.2 | 68.2 | – | 21 | 17.7 | 14.6 | 17.3 | 12.1 | 4.01 | 38.1 | 15.6 | 20.5 | 23 | 5.26 | –
9 | O=C1CCC2(c3ccc(Cl)cc3)Nc3ccncc3N12 (stereo not drawn) | – | > 10 | > 10 | > 10 | – | – | > 10 | > 10 | > 10 | > 10 | – | – | – | – | – | – | – | – | – | –
10 | O=C(Oc1ccc(Cl)cc1)c1ccccc1Nc1ccnc(C(F)(F)F)c1 | 27.6 | – | 8.44 | 33.1 | – | – | > 100 | – | – | 4.87 | 13.6 | – | 2.61 | 2.15 | 10.8 | – | – | 28.2 | – | –
11 | CC(C)(C)c1cc2ccc(C(N)=O)cc2c(=O)[nH]1 | > 100 | > 100 | > 100 | > 100 | > 100 | > 100 | > 100 | > 100 | > 100 | – | – | – | – | – | – | – | – | – | – | –
12 | COc1cc(-c2ccc3cc(OC)c(OC)c(OC)c3c2)cc(OC)c1OC | > 100 | > 100 | > 100 | > 100 | > 100 | 91.8 | – | > 100 | > 100 | > 100 | > 100 | 75.1 | 29.6 | 2.8 | 40.2 | > 100 | 11.1 | – | 11.9 | 8.75
13 | COc1ccc(-c2cn[nH]c2-c2cc(OC)c(OC)c(OC)c2)cc1 | 15 | > 74.9 | 19.5 | 21.3 | 0.0482 | 0.0715 | 15.2 | – | 11.4 | – | 0.0432 | 0.0631 | 0.0339 | – | 0.0615 | 0.0197 | – | 0.0572 | 0.0342 | –
14 | CN(C)CCn1c2c3ccccc3ccc2c2oc(=O)c3ccccc3c21 | – | 29.4 | 71 | 18.4 | > 100 | – | 8.94 | 26.3 | 29.1 | – | – | – | – | – | – | – | – | – | – | –
15 | NC(=O)c1ccccc1NC(=O)C(=O)C(C(=O)c1ccc(Cl)c(Cl)c1)C1OC(=O)c2ccccc21 (stereo not drawn) | > 100 | > 100 | > 100 | > 100 | > 100 | > 100 | – | 80.4 | 39 | – | – | – | – | – | – | – | – | – | – | –
16 | Cc1cc2c(C)[nH]nc2c(C(=O)O)c1C | > 100 | > 100 | > 100 | > 100 | > 100 | > 100 | > 100 | – | > 100 | – | – | – | – | – | – | – | – | – | – | –
17 | COC[C@H]1Cn2cc(-c3nc(Nc4ccnn4C)ncc3C)nc2C(=O)N1Cc1ccc(F)c(F)c1 | > 100 | > 100 | > 100 | > 100 | > 100 | 0.291 | > 86.6 | – | > 100 | > 100 | 0.0673 | > 100 | 0.0228 | 0.186 | 12.6 | 0.0203 | 0.0405 | 2.66 | 0.124 | –
18 | O=C(O)c1ccc2c(c1C(=O)O)C(=O)OC2(c1ccc(O)cc1)c1ccc(O)cc1 | – | > 100 | > 100 | > 100 | > 100 | > 100 | > 100 | > 100 | > 100 | > 100 | – | – | – | – | – | – | – | – | – | –
19 | Nc1n[nH]c2cccc(C#Cc3cccc(C(=O)Nc4ccc(CN5CCOCC5)c(C(F)(F)F)c4)c3)c12 | 13.9 | 35.5 | 3.52 | 9.96 | 6.99 | – | 5.82 | 2.69 | 5.2 | 10.5 | 3 | 3.36 | 1.12 | 2.22 | 2.63 | 1.35 | – | 1.9 | 1.53 | 0.446
